Reference: patent publication US4440757A, “Pharmaceutical composition comprising derivative of aminobenzoic acid for regulating prostaglandin” (priority 1978, dated 1984)
Read-outs that look alike come from different tables or passages of the source.

Key:
[1] = Acute oral toxicity (Litchfield-Wilcoxon); details: in vivo, mouse, 7 days
Description: The acute oral toxicity of the present substances were examined by using groups of ICR-JCL mouse and orally administering each of the representatives of present substances forcibly as an aqueous solution in distilled water or as an aqueous suspension also in distilled water at predetermined dosages, respectively. After observing the toxicological symptoms, if any, for 6 days, and recording the mortality until 7th day of the administration, LD50 (acute oral) was calculated by the method of Litchfield-Wilcoxon, and autopsy was carried out on dead mice and live mice to obtain informations.

[2] = test system: Salmonella typhimurium TA 100; assay: Mutagenicity, reversion assay, TA 100; format: cell-based
Description: (§1) (ii) The strains TA 98 and TA 100 (both are histidine requiring) of Salmonella typhimurium were used in the reversion assay.
(§2) Into 2 ml of a soft agar culture medium (the medium itself contains 6 g of sodium chloride and 6 g of agar in 1000 ml of distilled water) to which one tenth by volume of an aqueous solution of 0.5 mM of biotin and 0.5 mM of histidine had been added, 0.1 ml of the bacterial suspension and 0.1 ml of an aqueous solution of the present substance were admixed and the mixture was layered on the minimum agar culture medium. After 2 days of incubation at 37° C., the number of revertant colonies was counted. Furylfuramide (AF-2) was used as the positive control.

[3] = test system: Salmonella typhimurium TA 98; assay: Mutagenicity, reversion assay, TA 98; format: cell-based
Description: as §1, §2

dog's stomach = format: in vivo, Beagle dog
Description: Five grams of the present substance (each of Specimens Nos. 1, 2, 3, 4, 5, 6, 7, 8, 9, 10 and 11) and of aspirin were respectively administered to each Beagle of body weight of 9 to 12 kg as an aqueous suspension in distilled water of adjusted pH of 3, and after 90 min of the administration, the state of hemorrhage in the dog's stomach was examined.

Ehrlich cancer = assay: Cancer proliferation and PGE in the cancer cells (Ehrlich); format: in vivo, C57BL/6 mouse; details: 100 mg/kg i.p. every other day, 14th day; for Weight of cancer: control 1.30; for Content of PGE in the cancer: control 1.77
Description: Following the same method as in Example 12, the anti-cancer action against transplanted Ehrlich cancer in C57BL/6 mouse, and the amount of PGE in the cancer cells in proliferation in the living body of the mouse were examined in the cases where each one compound of the present invention, Specimens Nos. 1, 2, 3, 4, 5, 6, 8, 9, 10 and 11 was intraperitoneally administered every other day from the next day of the transplantation in total 6 times at a dosage of 100 mg/kg.
The results of determination of the weight of cancer extirpated from the sacrificed mouse on 14th day of the transplantation of the cancer cells, 1×10^6 in number per animal, and content of PGE of the extirpated cancer are shown in the following Table 13: […]

male Sprague-Dowley rats [4] = assay: Foot-oedema induced by carrageenin and PGE1; format: in vivo; details: challenge agents only, no present substance; 60 min
Description: The three groups of male Sprague-Dowley rats of total six groups, the respective present substances, Specimens Nos. 4, 7 and 8 were administered forcibly by oral route at a rate of 1000 mg/kg, the other three groups of the same kind of rats being administered nothing at this time.
After 60 min of the administration, 0.1 ml of an aqueous solution of carrageenin (1 mg) and PGE1 (0.1 μg) was injected onto the hind paw of the four groups of the rats including the three groups administered with the present substance. To one group of remaining two groups not administered with the present substance, 0.1 ml of an aqueous solution containing only carrageenin at 1% was injected, and to the other one group not administered with the present substance, an aqueous solution containing only PGE1 was injected.
The volume of the thus swollen foot of the groups of the thus treated rats was measured by the water-displacement method, and the results are shown in Table 17 by the increment of the volume of foot as compared to the volume of foot before the treatment as percentage.

male Sprague-Dowley rats [5] = assay: Leakage of dye-staff after skin stimulation with histamine and PGE1; format: in vivo; details: challenge agents only, no present substance
Description: To the three groups of male Sprague-Dowley rats of the total six groups, the respective present substances (Specimens Nos. 4, 7 and 8) were forcibly administered by oral route at the rate of 1000 mg/kg, the other three groups being administered nothing at this time. After 60 min of the administration, a mixture of PGE1 (2.5×10^-11 mol/animal) and histamine (2×10^-8 mol/animal) was intracutaneously injected under light […] into the shaved skin of an abdominal part of four groups of the rats including three groups administered with the present substance.

Bacillus subtilis M 45 = assay: Mutagenicity, rec-assay, strain M 45; format: cell-based; details: 10 μg/disk, negative control
Description: (§3) As the first stage, the present substances were tested by rec-assay (i), and as the second stage, they were tested by reversion assay (ii).
(§4) (i) A strain of Bacillus subtilis M 45, a defectant of recombination repair, and a wild strain of Bacillus subtilis H 17 keeping recombination repair activity were inoculated to make their own streaks not crossed at the start on a B-2 agar culture plate (made by dissolving 10 g of meat extract, 10 g of polypeptone, 5 g of sodium chloride and 15 g of agar in 1000 ml of distilled water at pH 7.0). Then, a paper disc of 8 mm in diameter, which absorbed 0.04 ml of an aqueous solution of the present substance in sterilized water was put on the surface of the agar plate so as to cover the starting point of the above-mentioned streaks of bacterial culture. The inoculated B-2 agar plate was kept at 37° C. for a night and the length of growth-inhibited region was measured.

Bacillus subtilis H 17 = assay: Mutagenicity, rec-assay, strain H 17; format: cell-based; details: 10 μg/disk, negative control
Description: as §3, §4

Row | SMILES | LD50 at 168 h [1] [mg/kg] | Number of revertant colonies TA 100 ([2]; 5,000 μg/plate, control 149) [number per plate] | Number of revertant colonies TA 98 ([3]; 5,000 μg/plate, control 13) [number per plate] | hemorrhage in the stomach (dog's stomach; dog, in vivo) | Weight of cancer (Ehrlich cancer) [g] | Content of PGE in the cancer (Ehrlich cancer) [ng/g] | further results
1 | C[C@@H]1OC(Nc2ccccc2C(=O)O)[C@H](O)[C@H](O)[C@H]1O (stereo partly drawn) [Specimen No. 2, Sodium o-aminobenzoate-N--L-rhamnoside] | 12500 | 61 | 9 | no hemorrhage in the stomach was found | 0.81 | 3.88 | –
2 | O=C(O)c1cccc(NC2O[C@H](CO)[C@@H](O)[C@H](O)[C@@H]2O)c1 (stereo partly drawn) [Specimen No. 3, Sodium m-aminobenzoate-N--D-mannoside] | > 10000 | 90 | 6 | no hemorrhage in the stomach was found | 0.74 | 4.23 | –
3 | CC(=O)Oc1ccccc1C(=O)O [aspirin, reference compound] | – | – | – | – | – | – | hemorrhage in the stomach (dog's stomach; 5 g, 90 min after administration): hemorrhage in the stomach was observed
4 | CCCCC[C@H](O)/C=C/[C@H]1[C@H](O)CC(=O)[C@@H]1CCCCCCC(=O)O [PGE1, reference compound] | – | – | – | – | – | – | Percentage increment of volume of foot (male Sprague-Dowley rats [4]): 9.3%; Absorbance at 620 nm (dye leakage) (male Sprague-Dowley rats [5]): 0.066
5 | COC(=O)c1ccccc1NC1O[C@H](CO)[C@@H](O)[C@H](O)[C@@H]1O (stereo partly drawn) [Specimen No. 11, Methyl o-aminobenzoate-N--D-mannoside] | > 7500 | 95 | 8 | no hemorrhage in the stomach was found | 0.69 | 4.20 | –
6 | NC[C@H]1O[C@H](O[C@H]2[C@H](O)[C@@H](O[C@H]3O[C@H](CO)[C@@H](O)[C@H](N)[C@H]3O)[C@H](N)C[C@@H]2N)[C@H](O)[C@@H](O)[C@@H]1O [Kanamycin] | – | – | – | – | – | – | Length of inhibition growth zone M 45 (Bacillus subtilis M 45): 5 mm; difference (M 45 minus H 17) (Bacillus subtilis M 45): 1 mm; Length of inhibition growth zone H 17 (Bacillus subtilis H 17): 4 mm
7 | O=C(O)c1ccc(NC2OC[C@H](O)[C@H](O)[C@H]2O)cc1 (stereo partly drawn) [Specimen No. 10, Sodium p-aminobenzoate-N--L-arabinoside] | 10800 | 51 | 3 | no hemorrhage in the stomach was found | 0.70 | 4.14 | –
8 | O=C(O)c1ccc(NC2O[C@H](CO)[C@@H](O)[C@H](O)[C@H]2O)cc1 (stereo partly drawn) [Specimen No. 5, Sodium p-aminobenzoate-N--D-glucoside] | > 15000 | 104 | 11 | no hemorrhage in the stomach was found | 0.70 | 3.20 | –
9 | NC(=O)C(=Cc1ccc([N+](=O)[O-])o1)c1ccco1 [Furylfuramide, reference compound] | – | – | – | – | – | – | Number of revertant colonies TA 100 ([2]; 0.1 μg/plate, positive control): 911 number per plate; Number of revertant colonies TA 98 ([3]; 0.1 μg/plate, positive control): 167 number per plate
10 | O=C(O)c1ccc(NC2O[C@H](CO)[C@H](O)[C@H](O)[C@H]2O)cc1 (stereo partly drawn) [Specimen No. 6, Sodium p-aminobenzoate-N--D-galactoside] | 14600 | 51 | 7 | no hemorrhage in the stomach was found | 0.65 | 3.66 | –
11 | NCCc1c[nH]cn1 [Histamine, histamine, reference compound] | – | – | – | – | – | – | Absorbance at 620 nm (dye leakage) (male Sprague-Dowley rats [5]): 0.192
12 | O=C(O)c1ccccc1NC1O[C@H](CO)[C@H](O)[C@H](O)[C@H]1O (stereo partly drawn) [Specimen No. 1, Sodium o-aminobenzoate-N--D-galactoside] | 6100 | 151 | 6 | no hemorrhage in the stomach was found | 0.63 | 4.10 | –
13 | O=C(O)c1ccc(NC2(CO)OC[C@@H](O)[C@@H](O)[C@@H]2O)cc1 (stereo partly drawn) [Specimen No. 9, Sodium p-aminobenzoate-N--D-fructoside] | > 10000 | 95 | 5 | no hemorrhage in the stomach was found | 0.80 | 4.32 | –
